Tests used:
anaesthetized rat = assay: Myocardial Infarction in the Anaesthetized Rat; format: in vivo; conditions: intravenous 5 minutes before ligation; 1 h ligation, 1 h reperfusion
Description: Myocardial Infarction in the Anaesthetized Rat:
Rats were prepared as in earlier experiments. Compounds were administered intravenously 5 minutes before ligation. The experiment consisted of one hour of ligation followed by one hour of reperfusion. Myocardial infarction was assessed by double dye technique using Evans blue and 2,3,5-Triphenyltetrazolium to identify area at risk and area of infarction respectively. Extent of infarction was expressed as a percent of area at risk. (Simpson et al, 1987, Circulation Research, 60, 666-673)

Na^+ /H^+ -exchanger = target: T1, Na^+ /H^+ -exchanger (Oryctolagus cuniculus, UniProt P23791); assay: Sodium-Proton exchange inhibition in rabbit erythrocytes; format: cell-based, rabbit (Albino, New Zealand strain); conditions: 37° C., 1 hour, hyperosmolar sucrose buffer, 0.1 mM Ouabain, read-out: IC50 (concentration necessary to reduce the erythrocyte sodium content to 50%)
T1 construct: Na^+ /H^+ -exchanger activity in the erythrocytes; endogenous in cells; host or cells: erythrocytes (whole blood from the ear vein) of cholesterol-fed New Zealand albino rabbits
Excerpt: Sodium-Proton exchange inhibition in rabbit erythrocytes:
Albino rabbits of New Zealand strain were fed with 2% cholesterol diet for six weeks prior to collecting blood for the determination of Na^+ /H^+ -exchanger activity in the erythrocytes. Eypercholesteremia has been reported to increase the exchanger activity in the rabbit erythrocytes (Scholz et al, 1990; Arteriosklerose--Neue Aspekte aus Zellbiologie und Molekulargenetik, Epidemiologie und Klinik; Assmann, G, et al, Eds, Braunschweig, Wiesbaden, Vieweg, 296-302). Blood samples were collected from the ear vein and hematocrit was determined. About 200 μl of blood was incubated at 37° C. for 1 hour with hyperosmolar sucrose buffer containing 0.1 mM Ouabain in the presence and absence of test sample. After the incubation period, the reaction was stopped by addition of 5 ml of ice cold MgCl2 solution containing 0.1 mM Ouabain. The erythrocytes were washed three times with 5 ml quantities of MgCl2 solution. They were hemolyzed by the addition of 4 ml of distilled water and the sodium content of the hemolyzed was determined by flame-photometry. The activity of the test compound was determined by its ability to reduce the sodium content of the erythrocyte and was expressed as IC50 which is the concentration necessary to reduce the erythrocyte sodium content to 50%.

anaesthetized rats = assay: Ischemia-Induced Arrhythmias in Anaesthetized Rats; format: in vivo, rat (Male Charles Foster); parameters: key to VF Percent inhibition: NP: No protection
Description: Ischemia-Induced Arrhythmias in Anaesthetized Rats:
Male Charles Foster rats (220-260 g) were anaesthetized with Pentobarbitone sodium. Animals were artificially ventilated. Blood pressure was recorded through carotid artery. Thoracotomy was performed to expose the heart. Left Anterior Descending (LAD) coronary artery was identified. Test compound was administered either orally […] before anaesthesia (40 minutes before LAD artery ligation) or intravenously (5 minutes before LAD artery ligation). Resulting arrhythmias during the 15 minute period of ligation were recorded and analyzed according to Lambeth Convention (Walker M. J. A, et al, 1988, Cardiovascular Research, 22, 447-455). Antiarrhythmic effect of the test compound was expressed as dose dependent inhibition of the duration of Ventricular Tachycardia (VT) and Ventricular Fibrillation (VF).

isolated rat heart = assay: Reperfusion Induced Arrhythmias in the isolated rat heart; parameters: species or system rat (Charles Foster); conditions: LAD ligation 15 min, reperfusion 30 min, read-out: IC50 for VFD (50% reduction of duration of ventricular fibrillation)
Description: Reperfusion Induced Arrhythmias in the isolated rat heart:
[…] Charles Foster rats of either sex (250-300 g) were sacrificed by stunning and exsanguination. Hearts were quickly removed and perfused according to Langendorffs method. Different concentrations of test compound were added into the perfusing medium. After 20 min of the equilibration period Left Anterior Descending (LAD) coronary artery was ligated. 15 minutes later the ligature was removed and reperfusion was allowed for next 30 minutes. During reperfusion period ECG was monitored. Duration of Ventricular Fibrillation (VFD) was the main parameter of assessment. Anti-arrhythmic activity was examined as the concentration of the test compound required to cause a 50% reduction of the VFD.

[1] = system: disturbances in cardiac rhythm; conditions: Circulation 79, 1257-1263 (1989); cited from earlier work
rat hearts = conditions: isolated rat hearts; Eur. Heart J. 9 {supplement 1}: 167 (1988); cited from earlier work

T1 sequence (P23791 whole entry): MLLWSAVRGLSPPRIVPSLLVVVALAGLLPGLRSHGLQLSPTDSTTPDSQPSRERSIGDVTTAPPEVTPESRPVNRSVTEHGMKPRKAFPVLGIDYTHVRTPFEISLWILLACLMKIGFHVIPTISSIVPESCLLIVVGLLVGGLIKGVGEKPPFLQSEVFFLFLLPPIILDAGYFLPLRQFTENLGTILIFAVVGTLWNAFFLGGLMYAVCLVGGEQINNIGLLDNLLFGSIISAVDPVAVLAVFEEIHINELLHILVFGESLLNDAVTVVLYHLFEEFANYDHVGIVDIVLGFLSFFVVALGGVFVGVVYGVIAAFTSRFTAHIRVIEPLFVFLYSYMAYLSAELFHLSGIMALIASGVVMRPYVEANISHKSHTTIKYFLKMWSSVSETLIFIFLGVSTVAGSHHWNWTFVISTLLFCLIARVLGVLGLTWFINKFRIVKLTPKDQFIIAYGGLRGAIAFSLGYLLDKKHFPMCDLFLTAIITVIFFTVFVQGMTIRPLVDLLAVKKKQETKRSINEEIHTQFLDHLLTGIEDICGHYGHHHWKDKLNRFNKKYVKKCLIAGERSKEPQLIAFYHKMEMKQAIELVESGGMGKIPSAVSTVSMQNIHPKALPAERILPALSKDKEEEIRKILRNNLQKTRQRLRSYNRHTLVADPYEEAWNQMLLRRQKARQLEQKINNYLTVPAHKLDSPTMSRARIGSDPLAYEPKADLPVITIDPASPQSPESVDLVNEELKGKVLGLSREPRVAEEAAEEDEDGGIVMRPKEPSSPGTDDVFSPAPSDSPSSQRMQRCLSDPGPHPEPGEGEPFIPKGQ

For `CC1=C(C(=O)N=C(N)N)Cc2c(Cl)cccc21` [Compound 10], the Protection against infarction (anaesthetized rat) was 68%, the IC50 (Na^+ /H^+ -exchanger) was 18 nM and the “VF Percent inhibition” value (anaesthetized rats; Intravenous, 0.1 mg/kg) was 100%. The “VT Percent inhibition” value (anaesthetized rats; Intravenous, 0.1 mg/kg) was 20 ± 24%, the “VF Percent inhibition” value (anaesthetized rats; Intravenous, 0.3 mg/kg) was 100% and the “VT Percent inhibition” value (anaesthetized rats; Intravenous, 0.3 mg/kg) was 81 ± 8%. The “VF Percent inhibition” value (anaesthetized rats; Intravenous, 1.0 mg/kg) was 100%, the “VT Percent inhibition” value (anaesthetized rats; Intravenous, 1.0 mg/kg) was 97 ± 1% and the “VF Percent inhibition” value (anaesthetized rats; Oral, 0.1 mg/kg) was “NP”. For the same compound, the “VT Percent inhibition” value (anaesthetized rats; Oral, 0.1 mg/kg) was 32 ± 12%, the “VF Percent inhibition” value (anaesthetized rats; Oral, 0.3 mg/kg) was 84% and the “VT Percent inhibition” value (anaesthetized rats; Oral, 0.3 mg/kg) was 69 ± 11%. For the same compound, the “VF Percent inhibition” value (anaesthetized rats; Oral, 1 mg/kg) was 100%, the “VT Percent inhibition” value (anaesthetized rats; Oral, 1 mg/kg) was 67 ± 11% and the IC50 (isolated rat heart) was 17 nM.
For `CC1=C(C(=O)N=C(N)N)Cc2ccccc21` [Compound 2], the Protection against infarction (anaesthetized rat) was 17%, the IC50 (Na^+ /H^+ -exchanger) was 90 nM and the “VF Percent inhibition” value (anaesthetized rats; Intravenous, 0.1 mg/kg) was 100%. The “VT Percent inhibition” value (anaesthetized rats; Intravenous, 0.1 mg/kg) was 57 ± 17%, the “VF Percent inhibition” value (anaesthetized rats; Intravenous, 0.3 mg/kg) was 100% and the “VT Percent inhibition” value (anaesthetized rats; Intravenous, 0.3 mg/kg) was 90 ± 3%. The “VF Percent inhibition” value (anaesthetized rats; Intravenous, 1.0 mg/kg) was 100%, the “VT Percent inhibition” value (anaesthetized rats; Intravenous, 1.0 mg/kg) was 98 ± 1% and the “VF Percent inhibition” value (anaesthetized rats; Oral, 1 mg/kg) was 68%. The “VT Percent inhibition” value (anaesthetized rats; Oral, 1 mg/kg) was 26 ± 0%, the “VF Percent inhibition” value (anaesthetized rats; Oral, 3 mg/kg) was 93% and the “VT Percent inhibition” value (anaesthetized rats; Oral, 3 mg/kg) was 31 ± 21%. The “VF Percent inhibition” value (anaesthetized rats; Oral, 10 mg/kg) was 00%, the “VT Percent inhibition” value (anaesthetized rats; Oral, 10 mg/kg) was 73 ± 8% and the IC50 (isolated rat heart) was 25 nM.
For `N=C(N)NC(=O)c1nc(Cl)c(N)nc1N` [amiloride], the antiarrhythmic effect [1] is listed as “only slight” and the “suppression of artificially induced ventricular fibrillation” value (rat hearts) is listed as “suppress an artificially induced ventricular fibrillation completely”.
In the case of `CCN(c1nc(N)c(C(=O)N=C(N)N)nc1Cl)C(C)C` [ethylisopropylamiloride], the “suppression of artificially induced ventricular fibrillation” value (rat hearts) is listed as “even more potent than amiloride”.
